According to patent publication US11518764B2, “Substituted heteroaryls as inhibitors of the BCL6 BTB domain protein-protein interaction” (Ontario Institute for Cancer Research (OICR), priority 2018, dated 2022):
Where two headings read alike, the source gives them in different places.

Key:
[1] = tested on: Karpas422 cells; assay: Tumor cell growth inhibition assay; assay type: cell-based
Protocol: Tumor Cell Growth inhibition Assay
Karpas422 cells were seeded into a 96-well plate at 2,000 cells/well in 150 ul medium (Alpha-MEM containing 10% FBS, […] Normocin, and […] Gentamycin, Invitrogen). A HP D300 digital dispenser was used to dose cells with DMSO or test compounds across a 10-point range of concentrations (high dose of 5 uM), and cultures were grown in a humidified 5% CO2 incubator at 37° C. After six days, plates were removed from incubator and equilibrated to room temperature. An equal volume of ATPlite assay reagent was added to each well, and samples were processed according to manufacturer's instructions (Perkin Elmer). Luminescent signal was measured using an Envision plate reader equipped with a US-Luminescence detector.

[2] = tested on: BCL6 reporter construct (3xBCL6-TK-Luc) in SuDHL4 cells; assay: Cell-based luciferase assay
Protocol: Cell-Based Luciferase Assay
A BCL6 reporter construct containing three copies of the consensus BCL6 binding site, the TK promoter, and the firefly luciferase gene was stably expressed in SuDHL4 cells after lentivirus infection and selection with Blasticidin. SuDHL4-3×BCL6-TK-Luc cells were seeded into a Viewplate 384-well assay dish at 15,000 cells/well in 25 ul medium (Alpha-MEM high glucose containing 10% FBS, 25 mM HEPES, […] GlutaMAX, 100 ug/ml Normocin, and […] Gentamycin, Invitrogen). A HP D300 digital dispenser was used to dose cells with DMSO or test compounds across a 10-point range of concentrations (high dose of 10 uM), and cultures were grown in a humidified 5% CO2 incubator at 37° C. After two days, plates were removed from the incubator and equilibrated to room temperature. An equal volume of neolite reporter gene assay reagent was added to each well, and samples were processed according to manufacturer's instructions (Perkin Elmer). Luminescent signal was measured using an Envision plate reader equipped with a US-Luminescence detector.

[3] = molecular target: BCL6 BTB domain (Homo sapiens (Human), UniProt P41182); assay: Surface plasmon resonance (SPR) assay; assay type: binding; conditions: BCL6 BTB domain captured on SA chip, single cycle kinetics
[4] = read-out: Tumor Growth Inhibition in Karpas-422 (IC50), Karpas422 cells, six days, ATPlite
[5] = Homo sapiens, SU-DHL-4, 48 h, read-out: Luciferase-Assay EC50, uM), SuDHL4-3xBCL6-TK-Luc cells, two days, high dose 10 uM
[6] = Homo sapiens, KARPAS-422, 144 h, read-out: Tumor Growth Inhibition in Karpas-422 (IC50, uM), Karpas422 cells, six days, ATPlite

Compound | EC50 [2, 5] | Kd [3] | IC50 [1, 6] | other results
C[C@H]1COCCN1c1cc(NC(=O)Cn2cc(-c3cc(Cl)c(O)c(C(N)=O)c3)c3c(=O)n(C)cnc32)c(Cl)cn1 [Compound I-35] | – | – | – | IC50 [1, 4]: 0.133 µM
Cn1cnc2c(c(-c3cc(C(N)=O)c(O)cn3)cn2CC(=O)Nc2cc(N3CCOCC3)ncc2Cl)c1=O [Compound I-143, 2-(7-(2-((5-chloro-2-morpholinopyridin-4-yl)amino)-2-oxoethyl)-3-methyl-4-oxo-4,7-dihydro-3H-pyrrolo[2,3-d]pyrimidin-5-yl)-5-hydroxyisonicotinamide] | 6.2 µM | 250 nM | – | –
C[C@H]1COCCN1c1cc(NC(=O)Cn2cc(-c3cc(Cl)c(O)c(C(N)=O)c3)c3c(=O)n(C)cnc32)c(Cl)cn1 [Compound I-239] | – | – | – | IC50 [1, 4]: 0.316 µM
C[C@H]1CN(C)CCN1c1cc(NC(=O)Cn2cc(-c3cc(F)c(O)c(C(N)=O)c3)c3c(=O)n(C)c(C(F)(F)F)nc32)c(Cl)cn1 [Compound I-233] | 0.161 µM | 23.7 nM | – | –
Cn1cnc2c(c(-c3cc(Cl)c(O)c(C(N)=O)c3)cn2CC(=O)N[C@@H]2CCCC[C@H]2OC(=O)C(F)(F)F)c1=O [Compound I-254, (1R,2R)-2-(2-(5-(3-carbamoyl-5-chloro-4-hydroxyphenyl)-3-methyl-4-oxo-3,4-dihydro-7H-pyrrolo[2,3-d]pyrimidin-7-yl)acetamido)cyclohexyl 2,2,2-trifluoroacetate] | – | 3880 nM | – | –
Cc1nc2c(c(-c3cc(Cl)c(O)c(C(N)=O)c3)cn2CC(=O)Nc2cc(N3CCN(C4COC4)C[C@@H]3C)ncc2Cl)c(=O)n1C [Compound I-336] | 0.0383 µM | – | 0.0502 µM | –
CN(C)c1cc(NC(=O)Cn2cc(-c3cc(Cl)c(O)c(C(N)=O)c3)c3c(=O)n(C)c(Nc4cc(N(C)C)ncc4Cl)nc32)c(Cl)cn1 [Compound I-291, 3-chloro-5-(2-((5-chloro-2-(dimethylamino)pyridin-4-yl)amino)-7-(2-((5-chloro-2-(dimethylamino)pyridin-4-yl)amino)-2-oxoethyl)-3-methyl-4-oxo-4,7-dihydro-3H-pyrrolo[2,3-d]pyrimidin-5-yl)-2-hydroxybenzamide] | 1.76 µM | – | 0.908 µM | –
CN1CCC2(C1)CN(c1cc(NC(=O)Cn3cc(-c4cc(C(N)=O)c(O)c(F)c4F)c4c(=O)n(C)cnc43)c(Cl)cn1)C2 [Compound I-485] | – | 805 nM | – | –
(S)-3-chloro-5-(7-(2-((5-chloro-2-(3-methylmorpholino)pyridin-4-yl)amino)-2-oxoethyl)-3-methyl-4-oxo-2-phenyl-4,7-dihydro-3H-pyrrolo[2,3-d]pyrimidin-5-yl)-2-hydroxybenzamide [Compound I-247] | – | – | – | IC50 ([1]; Karpas422 cells, six days, ATPlite, read-out: Tumor Growth Inhibition in Karpas-422 (IC50)): 0.628 µM; EC50 ([2]; SuDHL4-3xBCL6-TK-Luc cells, two days, high dose 10 uM, read-out: Luciferase-Assay EC50): 15.2 µM
Cn1cnc2c(c(-c3cc(Cl)c(O)c(C(N)=O)c3)cn2CC(=O)NC2CCCc3ncccc32)c1=O (stereo not drawn) [Compound I-257] | – | 3640 nM | – | –
Cn1cnc2c(c(-c3cc(Cl)c(O)c(C(N)=O)c3)cn2CC(=O)Nc2cc(N3CCn4cc(C(F)(F)F)nc4C3)ncc2Cl)c1=O [Compound I-165] | 0.466 µM | 14.9 nM | – | –
C[C@H]1CN(CC2CC2)CCN1c1cc(NC(=O)Cn2cc(-c3cc(C(N)=O)c(O)c(F)c3F)c3c(=O)n(C)cnc32)c(Cl)cn1 [Compound I-307] | 0.464 µM | – | 0.676 µM | –
Cc1nc2c(c(-c3cc(Cl)c(O)c(C(N)=O)c3)cn2CC(=O)Nc2ccncc2Br)c(=O)n1C [Compound I-337] | 1.55 µM | – | 1.93 µM | –
Cc1nc2c(c(-c3cc(C(N)=O)c(O)c(F)c3F)cn2CC(=O)Nc2cc(N3CCN(CC4CC4)C[C@@H]3C)ncc2Cl)c(=O)n1C [Compound I-339] | 0.454 µM | – | 0.237 µM | –
CNc1nc2c(c(-c3cc(Cl)c(O)c(C(N)=O)c3)cn2CC(=O)Nc2cc(N3CCOC[C@@H]3C)ncc2Cl)c(=O)n1C [Compound I-268, (S)-3-chloro-5-(7-(2-((5-chloro-2-(3-methylmorpholino)pyridin-4-yl)amino)-2-oxoethyl)-3-methyl-2-(methylamino)-4-oxo-4,7-dihydro-3H-pyrrolo[2,3-d]pyrimidin-5-yl)-2-hydroxybenzamide] | 1.8 µM | – | 1.86 µM | –
CN1CCN(c2ccc(Cl)c(NC(=O)Cn3cc(-c4cc(Cl)c(O)c(C(N)=O)c4)c4c(=O)n(C)cnc43)n2)CC1 [Compound I-175] | – | 429 nM | 4.79 µM | –
